# System: sperm
# Assay: Sperm motility assay
# Assay type: cell-based, Sprague-Dawley rats
# Experimental: Male Sprague-Dawley-rats, between the ages of 16-22 weeks, were used for this study. Following anesthesia, both testes were removed and the epididymides were collected, rinsed in warm Dulbecco's phosphate buffered saline (37° C.), and placed in a petri dish containing approximately 10 mL warm MHF-10 (37° C.). The epididymides were minced with scissors to release sperm. Pipette sperm suspension into a 50 mL plastic centrifuge tube with a screw cap. Dilute sperm with additional MHF-10 (approximately 5-12 mL) to form a milky suspension. The initial percentage of motile sperm must be at least 70% for a valid assay, and is determined by inoculating 200 μL sperm suspension into 0.8 mL MHF-10 and counting motile versus nonmotile sperm. After the test article concentrations equilibrated in a 36° to 37° C. incubator for at least 30 minutes, 200 μL aliquots of the sperm suspension were added to the 0.8 mL test compound concentrations, two at a time, at 5 minute intervals, beginning with the highest concentration and proceeding to in order to the lowest concentration, then ending with vehicle and positive controls. The final volume was 1 mL per test compound concentration. Motility was assessed using a microscope. 50-μL aliquots of the test concentration, containing sperm, were added to the wells of preheated glass slides and covered with preheated glass coverslips. Pipette tips, slides, and coverslips were maintained at 36-37° C. on a warming plate. Motility was assessed at the appropriate exposure times, generally 20 and 40 min after addition of sperm to the test concentration. The degrees of motility of≧200 sperm per concentration per time point were evaluated as either not motile (0), incipiently motile (quivering/pulsing/wiggling) (1), slowly motile (2), or rapidly motile (3). Criteria for a Valid Assay. […] Percent motility in the tables below is calculated as (Prog. Motile)/Total (Prog.+Incip.+Non)×100.
# [1] = Experiment B, 1 min, film 49.1-50 mg, N9 amount not given, sperm count
# [2] = Experiment B, 15 min, film 49.1-50 mg, N9 amount not given, sperm count
# [3] = Experiment B, 30 min, film 49.1-50 mg, N9 amount not given, sperm count
# [4] = Experiment C, 1 min, Nos 5-8: films 49.9-51.0 mg, N9 amount not given, sperm count
# [5] = Experiment C, 15 min, Nos 5-8: films 49.9-51.0 mg, N9 amount not given, sperm count
# [6] = Experiment C, 30 min, Nos 5-8: films 49.9-51.0 mg, N9 amount not given, sperm count
# [7] = Experiment D, 1 min, films 50-50.09 mg, N9 amount not given, sperm count
# [8] = Experiment D, 15 min, films 50-50.09 mg, N9 amount not given, sperm count
# [9] = Experiment D, 30 min, films 50-50.09 mg, N9 amount not given, sperm count
# [10] = first sperm study (T8), 1 min, films 4.3-19.8 mg, sperm count
# [11] = first sperm study (T8), 15 min, films 4.3-19.8 mg, sperm count
# [12] = first sperm study (T8), 30 min, films 4.3-19.8 mg, sperm count
compound,measurement,setting,value
"CC(O)C(=O)O (centres unmarked) [Lactic Acid 4%, Lactic Acid]",Non-Mot,"Experiment B, 1 min, 100 μl solution, sperm count",103
same,Non-Mot,"Experiment B, 1 min, 200 μl solution, sperm count",200
nonylphenoxypolyethoxy ethanol [Formulation N-9],% Motility,"Experiment B, 1 min, film 49.1-50 mg, N9 amount not given",0%
same,Incip.Mot,[1],0
same,Non-Mot,[1],200
same,Prog.-Mot,[1],0
same,% Motility,"Experiment B, 15 min, film 49.1-50 mg, N9 amount not given",0%
same,Incip.Mot,[2],0
same,Non-Mot,[2],200
same,% Motility,"Experiment B, 30 min, film 49.1-50 mg, N9 amount not given",0%
same,Incip.Mot,[3],0
same,Non-Mot,[3],200
same,Prog.Mot,[3],0
same,% Motility,"Experiment C, 1 min, Nos 5-8: films 49.9-51.0 mg, N9 amount not given",0%
same,Incip.Mot,[4],0
same,Non-Mot,[4],200
same,Prog-Mot,[4],0
same,Total,"Experiment C, 15 min, Nos 5-8: films 49.9-51.0 mg, N9 amount not given",0
same,Incip.Mot,[5],0
same,Mot,[5],0
same,Non-Mot,[5],200
same,Total,"Experiment C, 30 min, Nos 5-8: films 49.9-51.0 mg, N9 amount not given",0
same,Incip.Mot,[6],0
same,Mot,[6],0
same,Non-Mot,[6],200
same,% Motility,"Experiment D, 1 min, films 50-50.09 mg, N9 amount not given",0%
same,Incip.Mot,[7],0
same,Non-Mot,[7],200
same,Prog.Mot,[7],0
same,% Motility,"Experiment D, 15 min, films 50-50.09 mg, N9 amount not given",0%
same,Incip.Mot,[8],0
same,Non-Mot,[8],200
same,Prog.Mot,[8],0
same,% Motility,"Experiment D, 30 min, films 50-50.09 mg, N9 amount not given",0%
same,Incip.Mot,[9],0
same,Mot,[9],0
same,% Motility,"first sperm study (T8), 1 min, films 4.3-19.8 mg",0%
same,Incip.Mot,[10],0
same,Non-Mot,[10],100
same,% Motility,"first sperm study (T8), 15 min, films 4.3-19.8 mg",0%
same,Incip.Mot,[11],0
same,Non-Motile,[11],100
same,Prog-Motile,[11],0
same,% Motility,"first sperm study (T8), 30 min, films 4.3-19.8 mg",0%
same,Incip.Mot,[12],0
same,Non-Motile,[12],100
same,Prog-Motile,[12],0
